Source: US10047084B2, “Imidazolone derivatives, pharmaceutical compositions and uses thereof” (BEIJING FORELANDPHARMA CO. LTD., priority 2013, dated 2018)

How the values were obtained:
[1] = tested on: MV-4-11; assay: CTG cell survival assay, MV-4-11; type: cell-based; details: Homo sapiens, MV4-11, MV-4-11 cells
Outline: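 Cells grown in RPMI 1640 with 10% FBS were plated and cultured 24 h at 37 °C, 5% CO2, then treated with compound diluted from 10 mM DMSO stocks. Viable cells were quantified as ATP by CellTiter-Glo luminescence.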

[2] = tested on: SK-BR3/BT474; assay: CTG cell survival assay, SK-BR3/BT474; type: cell-based; details: SK-BR3/BT474 cells
Outline: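 Cells were exposed to compounds in a 3-fold dilution series, with a top final concentration of 10 uM in 0.1% DMSO. Viable cells were quantified by CellTiter-Glo ATP luminescence.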

SMILES	EC50 [1] [nM]	EC50 [2] [nM]
Cn1cc(-c2ccc(-c3ccc4ncc5c(c4c3)n(C3CCCN(S(C)(=O)=O)C3)c(=O)n5C)cn2)cn1 (centres unmarked) [Example 3, 3-methyl-8-(6-(1-methyl-1H-pyrazol-4-yl)pyridin-3-yl)-1-(1-(methanesulfonyl)piperidin-3-yl)-1H-imidazo[4,5-c]quinolin-2(3H)-one]	< 200	< 100
Cn1cc(-c2ccc(-c3ccc4ncc5c(c4c3)n([C@H]3CC[C@@H](O)CC3)c(=O)n5C)cn2)cn1 [Example 18, 1-((1s,4s)-4-hydroxycyclohexyl)-3-methyl-8-(6-(1-methyl-1H-pyrazol-4-yl)pyridin-3-yl)-1H-imidazo[4,5-c]quinolin-2(3H)-one]	< 100	< 50
Cn1cc(-c2ccc(-c3ccc4ncc5c(c4c3)n([C@H]3CCN(S(C)(=O)=O)C3)c(=O)n5C)cn2)cn1 [Example 28, (S)-3-methyl-8-(6-(1-methyl-1H-pyrazol-4-yl)pyridin-3-yl)-1-(1-(methanesulfonyl)pyrrolidin-3-yl)-1H-imidazo[4,5-c]quinolin-2(3H)-one]	< 100	< 50
Cn1cc(-c2ccc(-c3ccc4ncc5c(c4c3)n([C@@H]3CCCN(S(C)(=O)=O)C3)c(=O)n5C)cn2)cn1 [Example 31, (R)-3-methyl-8-(6-(1-methyl-1H-pyrazol-4-yl)pyridin-3-yl)-1-(1-(methanesulfonyl)piperidin-3-yl)-1H-imidazo[4,5-c]quinolin-2(3H)-one]	< 100	< 100
